IC50 data for 22 molecules are collected here from patent US7612089B2, “Tetrahydroisoquinolines as factor Xa inhibitors” (Portola Pharmaceuticals, Inc., priority 2004, dated 2009).

Where only a bound is given, the exact number is not on record here.

By IC50 is commonly meant the concentration needed to halve the response being measured.

T1 sequence (P00742 235-488 limits assumed): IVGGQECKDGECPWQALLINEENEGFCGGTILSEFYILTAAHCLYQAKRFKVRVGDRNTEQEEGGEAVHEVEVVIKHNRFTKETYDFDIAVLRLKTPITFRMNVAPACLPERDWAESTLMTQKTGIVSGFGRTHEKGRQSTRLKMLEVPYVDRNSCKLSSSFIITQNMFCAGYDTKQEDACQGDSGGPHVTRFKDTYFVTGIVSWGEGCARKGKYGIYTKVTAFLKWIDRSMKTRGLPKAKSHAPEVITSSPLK
T1 sequence (P00742 41-179 partner limits assumed): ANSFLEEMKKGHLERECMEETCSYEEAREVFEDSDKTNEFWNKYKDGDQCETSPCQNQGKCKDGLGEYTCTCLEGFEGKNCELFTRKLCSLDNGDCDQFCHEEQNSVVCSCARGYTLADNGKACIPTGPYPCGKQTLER

This test has as its target T1, human plasma protein factor Xa (Homo sapiens, UniProt P00742).
T1 construct: The human plasma protein factor Xa was purchased; purchased Haematologic Technologies (Essex Junction, Vt.); host or cells: human plasma
As to the kind of experiment: Factor Xa IC50 determination (cleavage of paranitroanilide substrate S-2765). Type of test: biochemical. The note with it: fXa 1 nM, S2765 100 μM, Tris buffered saline pH 7.4, room temperature. The source says:
This example illustrates methods for evaluating the compounds of the invention, along with results obtained for such assays. The in vitro and in vivo Factor Xa isoform activities of the inventive compounds can be determined by various procedures known in the art, such as a test for their ability to inhibit the activity of the Factor Xa isoform. […] The IC50 value is the concentration (in nM) of the compound required to provide 50% inhibition of Factor Xa isoform.
An in vitro assay for detecting and measuring inhibition activity against Factor Xa is as follows:
IC50 and Ki Determinations:
The substrate S-2765 (Z-D-Arg-Gly-Arg-pNA.HCl) was obtained from Diapharma (West Chester, Ohio).
The human plasma protein factor Xa was purchased from Haematologic Technologies (Essex Junction, Vt.).
All assays, which are performed in 96-well microtiter plates, measure proteolytic activity of the enzyme (factor Xa) by following cleavage of paranitroanilide substrate. The assay buffer used for proteolytic assays was Tris buffered saline (20 mM Tris, 150 mM NaCl, 5 mM CaCl2, 0.1% Bovine serum albumin (BSA), 5% Dimethly Sulfoxide (DMSO) pH 7.4). In a 96-well microtiter plate, inhibitor was serially diluted to give a range of concentrations from 0.01 nM to 10 μM (final). Duplicate sets of wells were assayed and control wells without inhibitor were included. Enzyme was added to each well, (fXa concentration=1 nM), the plate was shaken for 5 seconds and then incubated for 5 minutes at room temperature. S2765 was added (100 μM final) and the plate was shaken for 5 seconds (final liquid volume in each well was 200 μl). The degree of substrate hydrolysis was measured at 405 nm on a Thermomax plate reader (Molecular Devices, Sunnyvale, Calif.) for 2 minutes. The initial velocities (mOD/min), for each range of inhibitor concentrations, were fitted to a four parameter equation using Softmax data analysis software. The parameter C, derived from the resulting curve-fit, corresponded to the concentration for half maximal inhibition (IC50).
Regarding `CN1CCN=C1c1ccc(NC(=O)[C@H]2Cc3ccccc3CN2C(=O)Nc2ccc(Cl)cc2)cc1` [3(R), (3R)-N-[4-(1-methyl-4,5-dihydro-1H-imidazol-2-yl)phenyl]-2N-(4-chlorophenylaminocarbonyl)-1,2,3,4-tetrahydroisoquinoline-3-carboxamide], the 50% inhibitory concentration (IC50) is at most 0.1 µM.

Molecule `CN1CCN=C1c1ccc(NC(=O)[C@@H]2Cc3ccccc3CN2C(=O)Nc2ccc(Cl)cc2)cc1` [3(S), (3S)-N-[4-(1-methyl-4,5-dihydro-1H-imidazol-2-yl)phenyl]-2N-(4-chlorophenylaminocarbonyl)-1,2,3,4-tetrahydroisoquinoline-3-carboxamide] registered an IC50 of at most 0.1 µM. For `CN1CCN=C1c1ccc(NC(=O)C2Cc3ccccc3CN2C(=O)Nc2ccc(Cl)cc2)cc1` (stereo not shown) [Example 1, N-[4-(1-methyl-4,5-dihydro-1H-imidazol-2-yl)phenyl]-2N-(4-chlorophenylaminocarbonyl)-1,2,3,4-tetrahydroisoquinoline-3-carboxamide], the IC50 is at most 0.1 µM. In turn, `O=C(Nc1ccc(-c2cccc[n+]2[O-])cc1)C1Cc2ccccc2CN1C(=O)Nc1ccc(Cl)cc1` (stereo not shown) [Example 2, N-[4-(1N-oxo-pyridin-2-yl)phenyl]-2N-(4-chlorophenylaminocarbonyl)-1,2,3,4-tetrahydroisoquinoline-3-carboxamide] came in with a concentration for half-maximal inhibition (IC50) of at most 0.1 µM. `N=C(c1ccc(NC(=O)C2Cc3ccccc3CN2C(=O)Nc2ccc(Cl)cc2)cc1)N1CCCC1` (stereo not shown) [Example 4, N-[4-(pyrrolidinylimino)phenyl]-2N-(4-chlorophenylaminocarbonyl)-1,2,3,4-tetrahydroisoquinoline-3-carboxamide] returned an IC50 of at most 0.1 µM. For the molecule `CN(C)C(=N)c1ccc(NC(=O)C2Cc3ccccc3CN2C(=O)Nc2ccc(Cl)cc2)cc1` (stereo not shown) [Example 5, N-[4-(dimethylaminoimino)phenyl]-2N-(4-chlorophenylaminocarbonyl)-1,2,3,4-tetrahydroisoquinoline-3-carboxamide], the IC50 was at most 0.1 µM. Consider `CN(C)C(=N)c1cccc(CNC(=O)C2Cc3ccccc3CN2C(=O)Nc2ccc(Cl)cc2)c1` (stereo not shown) [Example 6, N-[3-(dimethylaminoimino)benzyl]-2N-(4-chlorophenylaminocarbonyl)-1,2,3,4-tetrahydroisoquinoline-3-carboxamide], for which the IC50 is at least 0.5 µM.

In turn, `CN1CCN=C1c1cccc(CNC(=O)C2Cc3ccccc3CN2C(=O)Nc2ccc(Cl)cc2)c1` (stereo not shown) [Example 7, N-[3-(1-methyl-4,5-dihydro-1H-imidazol-2-yl)benzyl]-2N-(4-chlorophenylaminocarbonyl)-1,2,3,4-tetrahydroisoquinoline-3-carboxamide] gave an IC50 of at least 0.5 µM. To `O=C(Nc1ccc(C(=O)N2CCCC2)cc1)C1Cc2ccccc2CN1C(=O)Nc1ccc(Cl)cc1` (stereo not shown) [Example 8, N-[4-(pyrrolidinylcarbonyl)phenyl]-2N-(4-chlorophenylaminocarbonyl)-1,2,3,4-tetrahydroisoquinoline-3-carboxamide] belongs at most 0.1 µM. Molecule `O=C(NCC1CCN(c2ccncc2)CC1)C1Cc2ccccc2CN1C(=O)Nc1ccc(Cl)cc1` (stereo not shown) [Example 9, N-[1-(pyridin-4-yl)piperidin-4-yl]methyl-2N-(4-chlorophenylaminocarbonyl)-1,2,3,4-tetrahydroisoquinoline-3-carboxamide] showed an IC50 of 0.1 to 0.5 µM. As for `CN1CCCN(c2ccc(NC(=O)C3Cc4ccccc4CN3C(=O)Nc3ccc(Cl)cc3)cc2)CC1` (stereo not shown) [Example 10, N-[4-(4-methyl-homopiperazinyl)]phenyl-2N-(4-chlorophenylaminocarbonyl)-1,2,3,4-tetrahydroisoquinoline-3-carboxamide], the half-maximal inhibitory concentration (IC50) was at most 0.1 µM. Take `CN1CCC(N2CCN(C(=O)C3Cc4ccccc4CN3C(=O)Nc3ccc(Cl)cc3)CC2)CC1` (stereo not shown) [Example 11, 4-(1-methylpiperidin-4-yl)piperazinyl 2N-(4-chlorophenylaminocarbonyl)-1,2,3,4-tetrahydroisoquinoline-3-carboxamide]: the IC50 is at most 0.1 µM.

In the case of `CC(C)N1CCC(NC(=O)C2Cc3ccccc3CN2C(=O)Nc2ccc(Cl)cc2)CC1` (stereo not shown) [Example 12, N-(1-isopropylpiperidin-4-yl)2N-(4-chlorophenylaminocarbonyl)-1,2,3,4-tetrahydroisoquinoline-3-carboxamide], the IC50 is at least 0.5 µM. Consider `CN(C)Cc1nccn1-c1ccc(NC(=O)C2Cc3ccccc3CN2C(=O)Nc2ccc(Cl)cc2)c(F)c1` (stereo not shown) [Example 13, N-[4-(2-dimethylaminomethyl-imidazol-1-yl)-2-fluorophenyl]-2N-(4-chlorophenylaminocarbonyl)-1,2,3,4-tetrahydroisoquinoline-3-carboxamide], for which the IC50 was at most 0.1 µM. As to `O=C(Nc1ccc(N2CCOCC2=O)cc1)C1Cc2ccccc2CN1C(=O)Nc1ccc(Cl)cc1` (stereo not shown) [Example 14, N-[4-(3-oxo-morpholin-4-yl)phenyl]-2N-(4-chlorophenylaminocarbonyl)-1,2,3,4-tetrahydroisoquinoline-3-carboxamide], the IC50 was at most 0.1 µM.

`O=C(Nc1ccc(C(=O)N2CCSC2)cc1)C1Cc2ccccc2CN1C(=O)Nc1ccc(Cl)cc1` (stereo not shown) [Example 15, N-[4-(3-thiazolidinylcarbonyl)phenyl]-2N-(4-chlorophenylaminocarbonyl)-1,2,3,4-tetrahydroisoquinoline-3-carboxamide] yielded an IC50 of at most 0.1 µM.

The molecule `O=C(Nc1ccc(C(=O)N2CCOC2)cc1)C1Cc2ccccc2CN1C(=O)Nc1ccc(Cl)cc1` (stereo not shown) [Example 16, N-[4-(3-oxazolidinylcarbonyl)phenyl]-2N-(4-chlorophenylaminocarbonyl)-1,2,3,4-tetrahydroisoquinoline-3-carboxamide] had an IC50 of at most 0.1 µM. Take `CN(c1ccncc1)c1ccc(NC(=O)C2Cc3ccccc3CN2C(=O)Nc2ccc(Cl)cc2)cc1` (stereo not shown) [Example 17, N-[4-(N-methyl-N-pyridin-4-yl-amino)phenyl]-2N-(4-chlorophenylaminocarbonyl)-1,2,3,4-tetrahydroisoquinoline-3-carboxamide]: the IC50 is at most 0.1 µM. `Cc1cccc2c1CC(C(=O)Nc1ccc(C3=NCCN3C)cc1)N(C(=O)Nc1ccc(Cl)cc1)C2` (stereo not shown) [Example 18, N-[4-(1-methyl-4,5-dihydro-1H-imidazol-2-yl)phenyl]-2N-(4-chlorophenylaminocarbonyl)-5-methyl-1,2,3,4-tetrahydroisoquinoline-3-carboxamide]: the IC50 was at most 0.1 µM. Regarding `Cc1cccc2c1CC(C(=O)Nc1ccc(C(=N)N3CCCC3)cc1)N(C(=O)Nc1ccc(Cl)cc1)C2` (stereo not shown) [Example 19, N-[4-(pyrrolidinylimino)phenyl]-2N-(4-chlorophenylaminocarbonyl)-5-methyl-1,2,3,4-tetrahydroisoquinoline-3-carboxamide], the IC50 was at most 0.1 µM.

Molecule `Cc1cccc2c1CC(C(=O)Nc1ccc(C(=N)N(C)C)cc1)N(C(=O)Nc1ccc(Cl)cc1)C2` (stereo not shown) [Example 20, N-[4-(dimethylaminoimino)phenyl]-2N-(4-chlorophenylaminocarbonyl)-5-methyl-1,2,3,4-tetrahydroisoquinoline-3-carboxamide] showed an IC50 of at most 0.1 µM. To `COc1cc2c(cc1OC)CN(C(=O)Nc1ccc(Cl)cc1)[C@H](C(=O)Nc1ccc(C3=NCCN3C)cc1)C2` [Example 21, (3S)-N-[4-(1-methyl-4,5-dihydro-1H-imidazol-2-yl)phenyl]-2N-(4-chlorophenylaminocarbonyl)-6,7-dimethoxy-1,2,3,4-tetrahydroisoquinoline-3-carboxamide] belongs at least 0.5 µM.
